# Measurements from the NIST ThermoML archive (doi:10.1016/j.jct.2014.05.016).
# ± gives the expanded uncertainty stated by the source.
# Assay: xn = mol fraction of the nth substance listed
# Conditions: 100 kPa, Liquid; for mass density: Vibrating tube method; for viscosity: Concentric cylinders viscometry
smiles,measurement,setting,value
C[n+]1ccn(CCO)c1.F[B-](F)(F)F [1-(2-hydroxyethyl)-3-methylimidazolium tetrafluoroborate] + CCCC[n+]1ccccc1.F[B-](F)(F)F,mass density,"318.15 K, x1 = 0.1003",1211.8 ± 1.1 kg/m3
same,mass density,"318.15 K, x1 = 0.2004",1225 ± 1.1 kg/m3
same,mass density,"318.15 K, x1 = 0.3003",1238.3 ± 1.1 kg/m3
same,mass density,"318.15 K, x1 = 0.3999",1252 ± 1.1 kg/m3
same,mass density,"318.15 K, x1 = 0.5007",1266.3 ± 1.1 kg/m3
same,mass density,"318.15 K, x1 = 0.5991",1280.7 ± 1.1 kg/m3
same,mass density,"318.15 K, x1 = 0.6954",1295.2 ± 1.1 kg/m3
same,mass density,"318.15 K, x1 = 0.7997",1311.4 ± 1.1 kg/m3
same,mass density,"318.15 K, x1 = 0.8996",1327.5 ± 1.1 kg/m3
same,mass density,"318.15 K, x1 = 1",1343.7 ± 1.1 kg/m3
same,viscosity,"323.15 K, x1 = 0.1003",46.31 ± 3.7 mPa·s
same,viscosity,"323.15 K, x1 = 0.2001",44.75 ± 3.6 mPa·s
same,viscosity,"323.15 K, x1 = 0.2997",43.16 ± 3.5 mPa·s
same,viscosity,"323.15 K, x1 = 0.3999",41.83 ± 3.4 mPa·s
same,viscosity,"323.15 K, x1 = 0.4996",40.75 ± 3.3 mPa·s
same,viscosity,"323.15 K, x1 = 0.5991",39.57 ± 3.2 mPa·s
same,viscosity,"323.15 K, x1 = 0.6997",38.63 ± 3.1 mPa·s
same,viscosity,"323.15 K, x1 = 0.7999",37.9 ± 3 mPa·s
same,viscosity,"323.15 K, x1 = 0.8998",36.75 ± 2.9 mPa·s
same,viscosity,"323.15 K, x1 = 1",36.5 ± 2.9 mPa·s
same,mass density,"323.15 K, x1 = 0.1003",1208.4 ± 1.1 kg/m3
same,mass density,"323.15 K, x1 = 0.2004",1221.5 ± 1.1 kg/m3
same,mass density,"323.15 K, x1 = 0.3003",1234.8 ± 1.1 kg/m3
same,mass density,"323.15 K, x1 = 0.3999",1248.5 ± 1.1 kg/m3
same,mass density,"323.15 K, x1 = 0.5007",1262.7 ± 1.1 kg/m3
same,mass density,"323.15 K, x1 = 0.5991",1277.1 ± 1.1 kg/m3
same,mass density,"323.15 K, x1 = 0.6954",1291.8 ± 1.1 kg/m3
same,mass density,"323.15 K, x1 = 0.7997",1307.8 ± 1.1 kg/m3
same,mass density,"323.15 K, x1 = 0.8996",1323.8 ± 1.1 kg/m3
same,mass density,"323.15 K, x1 = 1",1340.1 ± 1.1 kg/m3
same,viscosity,"328.15 K, x1 = 0.1003",38.01 ± 3.1 mPa·s
same,viscosity,"328.15 K, x1 = 0.2001",36.85 ± 3 mPa·s
same,viscosity,"328.15 K, x1 = 0.2997",35.7 ± 2.9 mPa·s
same,viscosity,"328.15 K, x1 = 0.3999",34.64 ± 2.8 mPa·s
same,viscosity,"328.15 K, x1 = 0.4996",33.74 ± 2.7 mPa·s
same,viscosity,"328.15 K, x1 = 0.5991",32.9 ± 2.6 mPa·s
same,viscosity,"328.15 K, x1 = 0.6997",32.19 ± 2.6 mPa·s
same,viscosity,"328.15 K, x1 = 0.7999",31.58 ± 2.5 mPa·s
same,viscosity,"328.15 K, x1 = 0.8998",30.65 ± 2.5 mPa·s
same,viscosity,"328.15 K, x1 = 1",30.46 ± 2.4 mPa·s
same,mass density,"328.15 K, x1 = 0.1003",1205.1 ± 1.1 kg/m3
same,mass density,"328.15 K, x1 = 0.2004",1218.1 ± 1.1 kg/m3
same,mass density,"328.15 K, x1 = 0.3003",1231.3 ± 1.1 kg/m3
same,mass density,"328.15 K, x1 = 0.3999",1245 ± 1.1 kg/m3
same,mass density,"328.15 K, x1 = 0.5007",1259.2 ± 1.1 kg/m3
same,mass density,"328.15 K, x1 = 0.5991",1273.5 ± 1.1 kg/m3
same,mass density,"328.15 K, x1 = 0.6954",1288 ± 1.1 kg/m3
same,mass density,"328.15 K, x1 = 0.7997",1304.1 ± 1.1 kg/m3
same,mass density,"328.15 K, x1 = 0.8996",1320.2 ± 1.1 kg/m3
same,mass density,"328.15 K, x1 = 1",1336.4 ± 1.1 kg/m3
same,viscosity,"333.15 K, x1 = 0.1003",31.61 ± 2.5 mPa·s
same,viscosity,"333.15 K, x1 = 0.2001",30.75 ± 2.5 mPa·s
same,viscosity,"333.15 K, x1 = 0.2997",29.88 ± 2.4 mPa·s
same,viscosity,"333.15 K, x1 = 0.3999",29.05 ± 2.3 mPa·s
same,viscosity,"333.15 K, x1 = 0.4996",28.35 ± 2.3 mPa·s
same,viscosity,"333.15 K, x1 = 0.5991",27.7 ± 2.2 mPa·s
same,viscosity,"333.15 K, x1 = 0.6997",27.13 ± 2.2 mPa·s
same,viscosity,"333.15 K, x1 = 0.7999",26.61 ± 2.1 mPa·s
same,viscosity,"333.15 K, x1 = 0.8998",25.87 ± 2.1 mPa·s
same,viscosity,"333.15 K, x1 = 1",25.73 ± 2.1 mPa·s
same,mass density,"333.15 K, x1 = 0.1003",1201.7 ± 1.1 kg/m3
same,mass density,"333.15 K, x1 = 0.2004",1214.6 ± 1.1 kg/m3
same,mass density,"333.15 K, x1 = 0.3003",1227.9 ± 1.1 kg/m3
same,mass density,"333.15 K, x1 = 0.3999",1241.5 ± 1.1 kg/m3
same,mass density,"333.15 K, x1 = 0.5007",1255.7 ± 1.1 kg/m3
same,mass density,"333.15 K, x1 = 0.5991",1270 ± 1.1 kg/m3
same,mass density,"333.15 K, x1 = 0.6954",1284.4 ± 1.1 kg/m3
same,mass density,"333.15 K, x1 = 0.7997",1300.5 ± 1.1 kg/m3
same,mass density,"333.15 K, x1 = 0.8996",1316.6 ± 1.1 kg/m3
same,mass density,"333.15 K, x1 = 1",1332.8 ± 1.1 kg/m3
same,viscosity,"338.15 K, x1 = 0.1003",26.6 ± 2.1 mPa·s
same,viscosity,"338.15 K, x1 = 0.2001",25.96 ± 2.1 mPa·s
same,viscosity,"338.15 K, x1 = 0.2997",25.28 ± 2 mPa·s
same,viscosity,"338.15 K, x1 = 0.3999",24.64 ± 2 mPa·s
same,viscosity,"338.15 K, x1 = 0.4996",24.09 ± 1.9 mPa·s
same,viscosity,"338.15 K, x1 = 0.5991",23.58 ± 1.9 mPa·s
same,viscosity,"338.15 K, x1 = 0.6997",23.11 ± 1.9 mPa·s
same,viscosity,"338.15 K, x1 = 0.7999",22.69 ± 1.8 mPa·s
same,viscosity,"338.15 K, x1 = 0.8998",22.08 ± 1.8 mPa·s
same,viscosity,"338.15 K, x1 = 1",21.98 ± 1.8 mPa·s
same,mass density,"338.15 K, x1 = 0.1003",1198.3 ± 1.1 kg/m3
same,mass density,"338.15 K, x1 = 0.2004",1211.2 ± 1.1 kg/m3
same,mass density,"338.15 K, x1 = 0.3003",1224.4 ± 1.1 kg/m3
same,mass density,"338.15 K, x1 = 0.3999",1238 ± 1.1 kg/m3
same,mass density,"338.15 K, x1 = 0.5007",1252.2 ± 1.1 kg/m3
same,mass density,"338.15 K, x1 = 0.5991",1266.5 ± 1.1 kg/m3
same,mass density,"338.15 K, x1 = 0.6954",1280.9 ± 1.1 kg/m3
same,mass density,"338.15 K, x1 = 0.7997",1297 ± 1.1 kg/m3
same,mass density,"338.15 K, x1 = 0.8996",1312.9 ± 1.1 kg/m3
same,mass density,"338.15 K, x1 = 1",1329.2 ± 1.1 kg/m3
same,viscosity,"343.15 K, x1 = 0.1003",22.64 ± 1.8 mPa·s
same,viscosity,"343.15 K, x1 = 0.2001",22.15 ± 1.8 mPa·s
same,viscosity,"343.15 K, x1 = 0.2997",21.6 ± 1.7 mPa·s
same,viscosity,"343.15 K, x1 = 0.3999",21.12 ± 1.7 mPa·s
same,viscosity,"343.15 K, x1 = 0.4996",20.68 ± 1.7 mPa·s
same,viscosity,"343.15 K, x1 = 0.5991",20.28 ± 1.6 mPa·s
same,viscosity,"343.15 K, x1 = 0.6997",19.9 ± 1.6 mPa·s
same,viscosity,"343.15 K, x1 = 0.7999",19.56 ± 1.6 mPa·s
same,viscosity,"343.15 K, x1 = 0.8998",19.05 ± 1.5 mPa·s
same,viscosity,"343.15 K, x1 = 1",18.95 ± 1.5 mPa·s
same,mass density,"343.15 K, x1 = 0.1003",1194.9 ± 1.1 kg/m3
same,mass density,"343.15 K, x1 = 0.2004",1207.8 ± 1.1 kg/m3
same,mass density,"343.15 K, x1 = 0.3003",1221 ± 1.1 kg/m3
same,mass density,"343.15 K, x1 = 0.3999",1234.6 ± 1.1 kg/m3
same,mass density,"343.15 K, x1 = 0.5007",1248.7 ± 1.1 kg/m3
same,mass density,"343.15 K, x1 = 0.5991",1263 ± 1.1 kg/m3
same,mass density,"343.15 K, x1 = 0.6954",1277.3 ± 1.1 kg/m3
same,mass density,"343.15 K, x1 = 0.7997",1293.4 ± 1.1 kg/m3
same,mass density,"343.15 K, x1 = 0.8996",1309.3 ± 1.1 kg/m3
same,mass density,"343.15 K, x1 = 1",1325.5 ± 1.1 kg/m3
